This passage reports Kd results from ChEMBL document CHEMBL4400575, “PROTAC Molecules for the Treatment of Autoimmune Disorders” (ACS Med Chem Lett, 2019).

This test concerns the target Protein cereblon (Homo sapiens, UniProt Q96SW2). Briefly: Displacement of (-)-thalidomide-alexa fluor/pomalidomide-fluorescein conjugated probe from […] fused CRBN (unknown origin) measured after 60 mins by fluorescence polarization assay.

Molecules are shown by their SMILES. pKd: −log10 of the molar value. Where only a bound is given, the exact number is not on record here.

Protein cereblon, sequence (Q96SW2 whole entry, the tested form may be a part): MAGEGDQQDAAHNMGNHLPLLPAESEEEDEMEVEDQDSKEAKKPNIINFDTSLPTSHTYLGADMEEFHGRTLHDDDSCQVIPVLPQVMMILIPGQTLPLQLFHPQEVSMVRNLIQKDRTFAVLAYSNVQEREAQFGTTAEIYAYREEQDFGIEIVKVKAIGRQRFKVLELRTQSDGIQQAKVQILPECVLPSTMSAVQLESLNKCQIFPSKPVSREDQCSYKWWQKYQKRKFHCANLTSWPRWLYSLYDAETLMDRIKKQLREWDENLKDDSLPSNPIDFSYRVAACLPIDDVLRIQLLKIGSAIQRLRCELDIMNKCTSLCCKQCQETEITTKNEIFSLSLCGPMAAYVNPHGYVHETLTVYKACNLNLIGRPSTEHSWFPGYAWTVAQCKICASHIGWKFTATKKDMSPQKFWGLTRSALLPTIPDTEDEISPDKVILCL

As to `Cc1nnc2n1-c1ccc(-c3cnn(CCCCCCN4CCN(c5ccc(NC6CCC(=O)NC6=O)cc5)CC4)c3)cc1C(c1ccc(Cl)cc1)=NC21CC1` (stereo not drawn), the pKd is at least 5.00.
`CC(=O)CCc1ccc(OC2CCC(=O)NC2=O)cc1` (stereo not drawn) showed a pKd of at least 5.00.
Compound `CC(C)(C)OC(=O)N1CCN(c2ccc(OC3CCC(=O)NC3=O)cc2)CC1` (stereo not drawn) had a pKd of at least 5.00.
Compound `Cc1sc2c(c1C)C(c1ccc(Cl)cc1)=N[C@@H](CC(=O)NCCCCCCCCN1CCN(c3ccc(NC4CCC(=O)NC4=O)cc3)CC1)c1nnc(C)n1-2` (stereo partly drawn) showed a pKd of at least 5.00.
Compound `COc1cccc(N(C)C2CCC(=O)NC2=O)c1` (stereo not drawn) had a negative logarithm of the Kd (pKd) of at least 5.00.
Consider `O=C1CCC(Nc2ccccc2N2CCOCC2)C(=O)N1` (stereo not drawn), for which the pKd was 4.30 to 5.00.
In the case of `CN1CCN(c2ccc(NC3CCC(=O)NC3=O)cc2)CC1` (stereo not drawn) it was at least 5.00; in that of `N#Cc1ccc(-c2ccc(OC3CCC(=O)NC3=O)cc2)cc1` (stereo not drawn), at least 5.00.
